# Source: patent publication US6333340A, “Small molecule sulfonamides for vision and memory disorders” (Gpi Nil Holdings, Inc., priority 1998, dated 2001)
# Where “and” joins values, the source holds several entries; their conditions need not be identical. Equal values may be shown once.
# Experiments:
# [1] = Clearance (comments of Table V); assay type: in vitro ADME
# [2] = system: retinal ganglion cell axons; experiment: Protection of retinal ganglion cell axons from degeneration following optic nerve transection, RT 97 axon density (Table V); assay type: in vivo
# Excerpt: Efficacy of representative compounds from different immunophilin ligand series in protecting retinal ganglion cell axons from degeneration following optic nerve transection is set forth in Table V.
# retinal ganglion cells = experiment: Optic nerve transection, retinal ganglion cell survival (Fluoro-gold counts); assay type: in vivo, Sprague Dawley rats; conditions: for RGC Counts: mean density + SEM in 400 μm sample gridfields
# Excerpt: (§1) All eyes and optic nerves stumps were removed.
# ^1 Mean density + SEM of Fluoro-gold labeled retinal ganglion cells
# (RGC) in 400 μm […] sample gridfields.
# optic nerve myelin = experiment: Optic nerve transection, myelin basic protein immunohistochemistry of optic nerve stumps; assay type: in vivo, Sprague Dawley rats; conditions: for Proximal optic nerve myelin basic protein Density, % recovery: SEM
# Excerpt: as §1
# ^5 determined from 20X analysis of % areal coverage of optic nerve
# ^6 shrinkage determined by comparing cross sectional area to sham
# control, myelin, leves determined by multiplying cross sectional area by […]
# [3] = system: streptozotocin-induced diabetic rat; experiment: Streptozotocin-induced diabetic sensory neuropathy, hot plate and tail flick tests; assay type: in vivo, Male Wistar rats; conditions: 10 mg/kg s.c., 6 weeks
# Experimental: The procedure involved using Male Wistar rats which were given a single injection of streptozotocin (65 mg/kg i.v.). Blood glucose levels were determined weekly for the first three weeks and on the last week of the experiment. Animals were evaluated weekly for signs of sensory neuropathy using the conventional hot plate and tail flick apparatus test procedures.
# aged mice = experiment: Morris watermaze, spatial learning and memory in aged mice; assay type: in vivo, male C57BL/6N-Nia mice; conditions: 10mg/kg daily
# Excerpt: The Morris watermaze is widely used for assessing spatial memory formation and retention in experimental animals. The test depends on the animal's ability to utilize spatial visual information in order to locate a submerged escape platform in a water tank. It is important that the tank itself be as devoid of specific visual features as possible--thus, it is always circular in shape, the sides are kept smooth and in uniform dull colors, and the water is rendered opaque with nontoxic watercolor pigment or powdered milk. This is to ensure that the animal navigates only by the use of more distant visual cues, or by the use of intra-maze cues specifically provided by the experimenter. The tank is filled to a level which forces the animal to swim actively. Normal mice and rats react […] to the swimming part of the test and will climb onto, and remain on, an escape platform from which they are removed to a heated resting cage. If the platform is visible (i.e. above the surface), animals placed in the tank will quickly learn to home in on the platform and climb out onto it. Testing with a visible platform will also ensure that the experimental animals are not blind and show sufficient motivation and stamina to perform the task, which can be important in experiments involving aged rodents. If the platform is invisible (i.e. submerged just below the surface), normal animals learn to use distant visual cues in the test room for orientation in the test tank, and, when placed in the tank, will quickly home in on the approximate location of the platform and circle in that area until the platform is found. The animals' path, speed, and swim time are tracked with a ceiling camera for later computerized analysis. Over the course of several successive trials, spatial learning can therefore be defined as a drop of distance swum, or time elapsed, from placement in the tank until escape onto the invisible platform. The test can be adapted to assess several aspects of spatial memory: a) acquisition of a cued task, where the animal's ability to link one visual cue directly with the escape platform depends on cortical function (i.e. a ball is suspended over the escape platform and the animal learns to follow this cue to find the platform); b) acquisition of a spatial task, where the animal's ability to learn the location of a submerged escape platform based on a combination of distant visual cues is dependent upon hippocampal function (i.e. the animal learns to triangulate its position in the tank by visually aligning the paper-tower dispenser with the door and ceiling lamp); c) retention of a successfully acquired spatial task, which is predominantly dependant on cortical function (i.e. the animal must remember the spatial location of the platform over several weeks); d) a hippocampus-dependant reversal task where the animals must reacquire a new spatial platform location (i.e. the platform is moved to a new location between swim trials and the animal must abandon its previous search strategy and acquire a new one). These different modifications of the Morris watermaze procedure can be applied in sequence to the same set of experimental animals and allow for a thorough characterization of their spatial memory performance and its decline with normal ageing. […]
# neurite outgrowth = experiment: Neurite outgrowth in culture; assay type: cell-based
# peripheral nerve = experiment: Peripheral nerve regeneration; conditions: in vivo
# [4] = system: central and peripheral nervous systems; conditions: Proc. Nat'l. Acad. Sci. USA 94, 2019-2024, 1997; cited from earlier work
# [5] = 14 days treatment, 90 days after ONT
# [6] = 28 days treatment, 90 days after ONT
# [7] = distal stump, first 28 days after transection
# [8] = proximal stump, first 28 days after transection
# [9] = retention after 3 weeks of dosing
structure (smiles),measurement,setting,value
CCC(C)(C)C(=O)C(=O)N1CCC[C@H]1C(=O)OCCCc1cccnc1 [GPI 1046],Clearance,[1],3.8 µL/min
same,RT 97 RCC axon density 11 days after ON transection (36 ON axon rescued),[2],60.5%
same,% RGCs Rescued,retinal ganglion cells; [5],5.3%
same,Spared RGC population,retinal ganglion cells; [5],"20,275"
same,RGC Counts,retinal ganglion cells; [5],49 ± 5.3
same,density of retinal ganglion cells that survived,"retinal ganglion cells; 14 days treatment, 90 days after transection, in words",small but not significant increase
same,% RGCs Rescued (protection of the vulnerable ganglion cell population),retinal ganglion cells; [6],12.6%
same,Spared RGC population,retinal ganglion cells; [6],"28,096"
same,RGC Counts,retinal ganglion cells; [6],67.9 ± 5.8
same,effect on retinal ganglion cells following Optic Nerve Transection,retinal ganglion cells; FIG. 10,neuroprotective effect
same,"protection of the vulnerable ganglion cell population, in words",retinal ganglion cells; first 28 days after transection,moderate but significant protection
same,"Distal optic nerve myelin basic protein Density, loss",optic nerve myelin; [5],47%
same,"Proximal optic nerve myelin basic protein Density, % recovery",optic nerve myelin; [5],1.6% and 1.6 ± 3.0%
same,"Distal optic nerve, shrinkage","optic nerve myelin; 14 days treatment, 90 days after ONT, cross sectional area vs sham control",33%
same,Distal optic nerve myelin preservation (myelin levels of normal),optic nerve myelin; [6],~ 99% and 99%
same,"Distal optic nerve, less shrinkage",optic nerve myelin; [6],56%
same,"Proximal optic nerve myelin basic protein Density, % recovery",optic nerve myelin; [6],70% and 70 ± 6.3%
same,density of degenerating myelin figures,"optic nerve myelin; distal stump, first 14 days after transection",remained high
same,density of myelin,"optic nerve myelin; distal stump, first 14 days after transection, in words",slightly increase the density of myelin
same,density of degenerating myelin figures,optic nerve myelin; [7],decreased the density of degenerating myelin figures
same,fascicular pattern of myelin labeling,optic nerve myelin; [7],dramatic protection of the fascicular pattern of myelin labeling
same,shrinkage of the distal stump,"optic nerve myelin; first 14 days after transection, in words",did not protect against shrinkage of the distal stump
same,cross sectional shrinkage of the distal stump,"optic nerve myelin; first 28 days after transection, in words",prevented cross sectional shrinkage of the distal stump
same,pattern of myelin degeneration,"optic nerve myelin; proximal stump, first 14 days after transection",did not alter the pattern of myelin degeneration
same,density of degenerating myelin figures,optic nerve myelin; [8],decreased the density of degenerating myelin figures
same,fascicular staining pattern for myelin basic protein,optic nerve myelin; [8],dramatic preservation of the fascicular staining pattern for myelin basic protein
same,behavioral sequelae of diabetic sensory neuropathy,[3],ameliorates the behavioral sequelae of diabetic sensory neuropathy
same,"latency, hot plate",[3],improvement in latency
same,"latency, tail flick",[3],improvement in latency
same,spatial memory performance of mice with age-related spatial memory impairments,aged mice; systemic,significantly enhanced spatial memory performance
same,"P, retention phase, young vs aged impaired GPI-1046",aged mice; F1.69 =3.09,0.08
same,"P, retention testing, aged impaired-vehicle vs aged impaired GPI-1046",aged mice; F1.69 =8.11,0.006
same,"retention phase, difference between young and aged impaired GPI-1046 groups",aged mice; [9],no longer any statistically significant difference
same,"retention testing, aged impaired-vehicle compared with aged impaired GPI-1046",aged mice; [9],"""aged impaired-vehicle"" treated animals performed significantly poorer than ""aged impaired - GPI-1046"""
same,neurite outgrowth in culture,neurite outgrowth,enhances neurite outgrowth in culture
same,peripheral nerve regeneration,peripheral nerve,enhance peripheral nerve regeneration
same,repair and regeneration in the central and peripheral nervous systems,[4],promote repair and regeneration in the central and peripheral nervous systems
